From ChEMBL document CHEMBL4507291 (2021)

How the values were obtained:
[1] = biological target: Ribosomal protein S6 kinase alpha-3 (Homo sapiens) (UniProt P51812); assay: RPS6KA3 (RSK2) Kinase screen; details: Compound concentration 1.0 uM
[2] = tested on: T1, Receptor-type tyrosine-protein kinase FLT3 (Homo sapiens), P36888 [D835Y]; assay: FLT3 D835Y Kinase screen; details: Compound concentration 1.0 uM
T1 sequence (whole entry): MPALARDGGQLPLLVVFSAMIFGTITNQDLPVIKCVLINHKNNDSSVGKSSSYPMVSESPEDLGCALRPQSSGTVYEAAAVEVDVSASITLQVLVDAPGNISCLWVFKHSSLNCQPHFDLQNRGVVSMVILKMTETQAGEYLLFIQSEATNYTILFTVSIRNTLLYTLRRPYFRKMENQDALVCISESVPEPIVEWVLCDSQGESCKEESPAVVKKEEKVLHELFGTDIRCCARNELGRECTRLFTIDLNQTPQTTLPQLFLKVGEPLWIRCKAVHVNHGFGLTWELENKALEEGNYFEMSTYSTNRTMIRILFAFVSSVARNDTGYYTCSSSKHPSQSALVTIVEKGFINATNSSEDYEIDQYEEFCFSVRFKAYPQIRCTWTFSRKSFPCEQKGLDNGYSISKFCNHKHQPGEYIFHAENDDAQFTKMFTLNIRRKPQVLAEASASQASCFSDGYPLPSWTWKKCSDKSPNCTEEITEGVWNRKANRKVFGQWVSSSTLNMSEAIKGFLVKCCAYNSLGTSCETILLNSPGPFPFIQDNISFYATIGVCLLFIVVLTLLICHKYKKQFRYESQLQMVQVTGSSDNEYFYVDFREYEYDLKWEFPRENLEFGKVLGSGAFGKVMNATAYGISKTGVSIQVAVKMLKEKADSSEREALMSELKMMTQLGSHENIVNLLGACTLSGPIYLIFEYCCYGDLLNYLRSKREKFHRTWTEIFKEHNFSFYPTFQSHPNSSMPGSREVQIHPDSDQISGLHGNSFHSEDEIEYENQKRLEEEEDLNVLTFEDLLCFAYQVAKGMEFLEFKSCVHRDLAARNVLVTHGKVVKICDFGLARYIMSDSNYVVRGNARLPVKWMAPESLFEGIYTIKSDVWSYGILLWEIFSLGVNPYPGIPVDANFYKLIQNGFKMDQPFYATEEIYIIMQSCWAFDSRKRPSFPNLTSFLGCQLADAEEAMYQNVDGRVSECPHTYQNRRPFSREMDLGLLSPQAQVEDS

[3] = biological target: T2, Tyrosine-protein kinase Tec (Homo sapiens) (UniProt P42680); assay: TEC Kinase screen; details: Compound concentration 1.0 uM
T2 sequence (whole entry): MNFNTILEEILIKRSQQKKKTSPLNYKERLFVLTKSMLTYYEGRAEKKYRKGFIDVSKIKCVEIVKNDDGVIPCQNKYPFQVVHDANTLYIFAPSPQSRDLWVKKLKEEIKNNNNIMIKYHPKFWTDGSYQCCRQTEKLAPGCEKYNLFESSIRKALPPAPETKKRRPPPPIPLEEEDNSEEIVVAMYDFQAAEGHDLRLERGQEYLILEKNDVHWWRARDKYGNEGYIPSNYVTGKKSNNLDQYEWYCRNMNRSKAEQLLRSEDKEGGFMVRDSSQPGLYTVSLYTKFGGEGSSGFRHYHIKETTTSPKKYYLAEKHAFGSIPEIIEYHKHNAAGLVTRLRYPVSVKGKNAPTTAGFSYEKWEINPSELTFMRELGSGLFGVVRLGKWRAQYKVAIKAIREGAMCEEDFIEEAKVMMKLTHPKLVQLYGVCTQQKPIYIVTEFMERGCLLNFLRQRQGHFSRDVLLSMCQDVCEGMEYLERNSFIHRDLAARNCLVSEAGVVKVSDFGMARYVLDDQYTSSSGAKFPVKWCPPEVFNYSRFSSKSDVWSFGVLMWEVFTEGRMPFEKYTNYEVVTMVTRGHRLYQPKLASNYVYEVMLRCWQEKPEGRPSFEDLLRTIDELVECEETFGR

[4] = biological target: T3, Inhibitor of nuclear factor kappa-B kinase subunit alpha (Homo sapiens) (UniProt O15111); assay: CHUK (IKK alpha) Kinase screen; details: Compound concentration 1.0 uM
T3 sequence (whole entry): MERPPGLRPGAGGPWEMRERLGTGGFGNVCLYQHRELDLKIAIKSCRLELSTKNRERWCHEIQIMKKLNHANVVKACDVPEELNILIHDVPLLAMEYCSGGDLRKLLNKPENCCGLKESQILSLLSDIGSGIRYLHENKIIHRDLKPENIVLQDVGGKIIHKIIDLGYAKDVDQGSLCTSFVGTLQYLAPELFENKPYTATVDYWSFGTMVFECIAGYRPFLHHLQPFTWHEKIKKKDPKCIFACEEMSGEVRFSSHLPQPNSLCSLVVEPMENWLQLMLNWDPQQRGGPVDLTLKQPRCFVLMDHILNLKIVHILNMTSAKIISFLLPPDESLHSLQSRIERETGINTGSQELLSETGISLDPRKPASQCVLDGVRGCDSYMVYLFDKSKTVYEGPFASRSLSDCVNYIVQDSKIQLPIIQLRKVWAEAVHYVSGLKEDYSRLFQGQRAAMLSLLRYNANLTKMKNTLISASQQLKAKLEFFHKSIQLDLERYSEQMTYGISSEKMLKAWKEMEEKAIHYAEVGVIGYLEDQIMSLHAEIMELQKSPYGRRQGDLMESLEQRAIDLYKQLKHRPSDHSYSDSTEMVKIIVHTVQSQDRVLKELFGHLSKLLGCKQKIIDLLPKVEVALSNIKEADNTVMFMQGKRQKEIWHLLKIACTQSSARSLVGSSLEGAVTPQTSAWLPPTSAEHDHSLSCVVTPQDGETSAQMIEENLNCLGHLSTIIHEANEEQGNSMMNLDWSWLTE

[5] = biological target: Prostaglandin E2 receptor EP1 subtype (Homo sapiens) (UniProt P34995); assay: Prostanoid EP1 Eurofins-Panlabs radioligand binding assay; design: ligand concentration 1 nM; details: Compound concentration 10.0 uM
Sequence of Prostaglandin E2 receptor EP1 subtype (Homo sapiens) (P34995 whole entry): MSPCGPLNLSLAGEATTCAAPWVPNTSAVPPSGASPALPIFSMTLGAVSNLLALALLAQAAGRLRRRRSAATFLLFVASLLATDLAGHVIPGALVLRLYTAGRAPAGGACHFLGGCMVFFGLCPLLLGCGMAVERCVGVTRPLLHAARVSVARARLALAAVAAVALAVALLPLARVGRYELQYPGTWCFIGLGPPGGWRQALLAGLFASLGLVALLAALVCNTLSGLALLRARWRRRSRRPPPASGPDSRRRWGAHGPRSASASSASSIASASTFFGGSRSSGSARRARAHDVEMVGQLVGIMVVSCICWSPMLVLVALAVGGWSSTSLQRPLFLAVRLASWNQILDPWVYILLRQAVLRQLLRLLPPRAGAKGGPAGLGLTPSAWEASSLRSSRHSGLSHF

[6] = biological target: Mast/stem cell growth factor receptor Kit (Homo sapiens) (UniProt P10721); assay: KIT Kinase screen; details: Compound concentration 1.0 uM
[7] = biological target: Melanocyte-stimulating hormone receptor (Homo sapiens) (UniProt Q01726); assay: Melanocortin MC1 Eurofins-Panlabs radioligand binding assay; details: Compound concentration 10.0 uM
Sequence of Melanocyte-stimulating hormone receptor (Homo sapiens) (Q01726 whole entry, looked up): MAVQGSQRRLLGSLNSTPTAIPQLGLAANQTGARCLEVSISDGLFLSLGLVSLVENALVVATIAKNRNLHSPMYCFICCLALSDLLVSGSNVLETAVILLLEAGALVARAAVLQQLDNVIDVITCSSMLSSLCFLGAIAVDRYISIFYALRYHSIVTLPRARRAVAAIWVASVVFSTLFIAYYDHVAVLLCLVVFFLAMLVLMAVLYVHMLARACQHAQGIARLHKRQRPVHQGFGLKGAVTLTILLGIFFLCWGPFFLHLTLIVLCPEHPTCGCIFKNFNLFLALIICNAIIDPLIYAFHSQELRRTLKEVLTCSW

[8] = biological target: DNA-dependent protein kinase catalytic subunit (Homo sapiens) (UniProt P78527); assay: DNA-PK Kinase screen; details: Compound concentration 1.0 uM
[9] = biological target: Protein kinase C zeta type (Homo sapiens) (UniProt Q05513); assay: PRKCZ (PKC zeta) Kinase screen; details: Compound concentration 1.0 uM
Sequence of Protein kinase C zeta type (Homo sapiens) (Q05513 whole entry): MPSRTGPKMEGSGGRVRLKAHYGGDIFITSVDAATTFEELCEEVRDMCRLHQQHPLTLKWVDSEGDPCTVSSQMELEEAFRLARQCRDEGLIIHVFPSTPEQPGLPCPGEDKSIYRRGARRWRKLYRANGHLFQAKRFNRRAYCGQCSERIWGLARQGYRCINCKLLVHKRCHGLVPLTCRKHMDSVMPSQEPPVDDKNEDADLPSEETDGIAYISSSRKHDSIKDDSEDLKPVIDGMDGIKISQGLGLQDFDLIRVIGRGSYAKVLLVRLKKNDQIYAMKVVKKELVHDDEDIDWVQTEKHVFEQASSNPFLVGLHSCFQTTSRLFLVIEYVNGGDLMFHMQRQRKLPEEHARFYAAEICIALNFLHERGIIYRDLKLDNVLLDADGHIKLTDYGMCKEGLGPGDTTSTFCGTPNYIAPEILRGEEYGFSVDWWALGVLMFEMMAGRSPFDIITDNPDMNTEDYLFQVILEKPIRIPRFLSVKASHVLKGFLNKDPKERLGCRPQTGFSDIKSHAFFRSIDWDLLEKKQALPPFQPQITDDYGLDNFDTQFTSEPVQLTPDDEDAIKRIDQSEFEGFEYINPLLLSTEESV

[10] = biological target: Homeodomain-interacting protein kinase 1 (Homo sapiens) (UniProt Q86Z02); assay: HIPK1 (Myak) Kinase screen; details: Compound concentration 1.0 uM
Sequence of Homeodomain-interacting protein kinase 1 (Homo sapiens) (Q86Z02 whole entry, looked up): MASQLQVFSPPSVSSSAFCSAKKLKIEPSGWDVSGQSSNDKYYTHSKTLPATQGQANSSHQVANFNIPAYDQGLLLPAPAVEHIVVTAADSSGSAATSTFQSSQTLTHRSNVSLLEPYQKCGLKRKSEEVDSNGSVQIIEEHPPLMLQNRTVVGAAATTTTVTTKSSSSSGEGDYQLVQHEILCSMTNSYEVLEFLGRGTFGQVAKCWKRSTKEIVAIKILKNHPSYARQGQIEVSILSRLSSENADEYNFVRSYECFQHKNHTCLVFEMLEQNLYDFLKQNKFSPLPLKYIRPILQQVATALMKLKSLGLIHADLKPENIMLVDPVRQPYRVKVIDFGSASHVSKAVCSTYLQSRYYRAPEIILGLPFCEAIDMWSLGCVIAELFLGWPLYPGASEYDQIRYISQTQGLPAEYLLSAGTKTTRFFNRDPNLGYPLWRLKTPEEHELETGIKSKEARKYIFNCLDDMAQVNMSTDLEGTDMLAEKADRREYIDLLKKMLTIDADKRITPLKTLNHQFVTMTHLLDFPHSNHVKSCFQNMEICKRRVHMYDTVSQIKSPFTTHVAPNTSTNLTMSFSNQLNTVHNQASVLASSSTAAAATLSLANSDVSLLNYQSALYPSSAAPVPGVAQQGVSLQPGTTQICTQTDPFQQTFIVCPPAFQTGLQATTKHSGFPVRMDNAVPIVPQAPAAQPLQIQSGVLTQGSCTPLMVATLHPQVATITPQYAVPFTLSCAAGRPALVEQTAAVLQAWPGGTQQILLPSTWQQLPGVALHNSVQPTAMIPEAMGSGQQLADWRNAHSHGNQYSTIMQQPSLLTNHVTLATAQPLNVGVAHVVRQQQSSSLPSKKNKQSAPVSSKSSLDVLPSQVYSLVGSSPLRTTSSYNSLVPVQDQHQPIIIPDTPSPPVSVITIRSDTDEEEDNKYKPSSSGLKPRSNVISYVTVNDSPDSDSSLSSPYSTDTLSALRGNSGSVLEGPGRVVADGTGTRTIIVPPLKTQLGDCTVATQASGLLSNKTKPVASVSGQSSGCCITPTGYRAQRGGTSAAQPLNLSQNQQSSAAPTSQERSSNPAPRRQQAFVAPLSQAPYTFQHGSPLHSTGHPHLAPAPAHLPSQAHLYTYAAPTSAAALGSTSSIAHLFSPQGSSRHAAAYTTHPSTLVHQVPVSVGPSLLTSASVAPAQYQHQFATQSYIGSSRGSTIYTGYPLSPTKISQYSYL

[11] = biological target: Receptor-interacting serine/threonine-protein kinase 2 (Homo sapiens) (UniProt O43353); assay: RIPK2 Kinase screen; details: Compound concentration 1.0 uM
Sequence of Receptor-interacting serine/threonine-protein kinase 2 (Homo sapiens) (O43353 whole entry): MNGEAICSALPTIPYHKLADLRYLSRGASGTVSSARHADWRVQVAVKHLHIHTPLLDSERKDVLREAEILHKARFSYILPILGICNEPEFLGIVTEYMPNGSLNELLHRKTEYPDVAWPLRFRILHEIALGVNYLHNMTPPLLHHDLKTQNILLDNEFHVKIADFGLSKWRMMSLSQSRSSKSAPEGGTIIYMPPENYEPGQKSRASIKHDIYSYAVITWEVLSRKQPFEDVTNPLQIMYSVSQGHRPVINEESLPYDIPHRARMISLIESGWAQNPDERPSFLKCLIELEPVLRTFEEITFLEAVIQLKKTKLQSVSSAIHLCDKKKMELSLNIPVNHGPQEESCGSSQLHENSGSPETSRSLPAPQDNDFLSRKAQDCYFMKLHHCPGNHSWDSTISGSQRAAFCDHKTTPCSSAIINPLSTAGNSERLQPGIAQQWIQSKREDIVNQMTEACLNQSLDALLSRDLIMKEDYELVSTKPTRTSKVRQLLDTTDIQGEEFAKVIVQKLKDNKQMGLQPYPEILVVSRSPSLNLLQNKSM

[12] = biological target: PI3-kinase p110-delta/p85-alpha (Homo sapiens) (UniProt P27986+O00329); assay: PIK3CD/PIK3R1 (p110 delta/p85 alpha) Kinase screen; assay type: protein-complex assay; details: Compound concentration 1.0 uM
[13] = tested on: Tyrosine-protein kinase ABL1 (Homo sapiens), P00519 [E255K]; assay: ABL1 E255K Kinase screen; details: Compound concentration 1.0 uM
[14] = tested on: Epidermal growth factor receptor (Homo sapiens), P00533 [L858R]; assay: EGFR (ErbB1) L858R Kinase screen; details: Compound concentration 1.0 uM
Sequence of Epidermal growth factor receptor (Homo sapiens), P00533 [L858R] (P00533 whole entry L858R): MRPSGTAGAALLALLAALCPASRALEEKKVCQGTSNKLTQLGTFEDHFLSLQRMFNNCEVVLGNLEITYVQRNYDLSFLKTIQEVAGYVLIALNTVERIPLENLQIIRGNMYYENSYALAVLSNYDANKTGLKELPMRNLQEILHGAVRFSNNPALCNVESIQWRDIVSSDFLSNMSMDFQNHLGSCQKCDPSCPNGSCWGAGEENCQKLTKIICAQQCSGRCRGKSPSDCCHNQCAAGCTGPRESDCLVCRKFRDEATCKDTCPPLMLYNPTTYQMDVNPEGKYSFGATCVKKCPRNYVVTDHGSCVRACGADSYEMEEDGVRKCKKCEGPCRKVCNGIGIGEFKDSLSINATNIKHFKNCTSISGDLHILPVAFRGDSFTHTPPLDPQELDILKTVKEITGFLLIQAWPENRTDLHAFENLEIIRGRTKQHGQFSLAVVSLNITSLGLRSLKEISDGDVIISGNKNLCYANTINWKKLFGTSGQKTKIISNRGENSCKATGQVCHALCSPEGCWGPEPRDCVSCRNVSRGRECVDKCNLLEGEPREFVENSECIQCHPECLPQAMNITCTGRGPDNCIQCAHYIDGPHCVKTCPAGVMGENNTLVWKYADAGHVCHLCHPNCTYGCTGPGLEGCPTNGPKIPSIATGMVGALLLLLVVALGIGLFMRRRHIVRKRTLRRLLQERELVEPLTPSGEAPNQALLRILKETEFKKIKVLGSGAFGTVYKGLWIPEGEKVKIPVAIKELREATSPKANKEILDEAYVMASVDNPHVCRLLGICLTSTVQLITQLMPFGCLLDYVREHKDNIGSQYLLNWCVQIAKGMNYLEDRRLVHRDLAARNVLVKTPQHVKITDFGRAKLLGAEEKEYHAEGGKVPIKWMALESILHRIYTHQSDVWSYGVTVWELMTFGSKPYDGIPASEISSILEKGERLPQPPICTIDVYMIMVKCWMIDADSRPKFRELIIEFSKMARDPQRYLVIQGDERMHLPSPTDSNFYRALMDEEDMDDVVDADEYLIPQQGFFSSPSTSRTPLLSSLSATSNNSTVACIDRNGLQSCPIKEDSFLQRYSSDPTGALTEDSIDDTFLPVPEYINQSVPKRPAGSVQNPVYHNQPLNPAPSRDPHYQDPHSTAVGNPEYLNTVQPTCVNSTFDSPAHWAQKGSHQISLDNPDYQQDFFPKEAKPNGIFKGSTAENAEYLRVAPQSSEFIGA

Measured: inhibition

Sequence of Ribosomal protein S6 kinase alpha-3 (Homo sapiens) (P51812 whole entry): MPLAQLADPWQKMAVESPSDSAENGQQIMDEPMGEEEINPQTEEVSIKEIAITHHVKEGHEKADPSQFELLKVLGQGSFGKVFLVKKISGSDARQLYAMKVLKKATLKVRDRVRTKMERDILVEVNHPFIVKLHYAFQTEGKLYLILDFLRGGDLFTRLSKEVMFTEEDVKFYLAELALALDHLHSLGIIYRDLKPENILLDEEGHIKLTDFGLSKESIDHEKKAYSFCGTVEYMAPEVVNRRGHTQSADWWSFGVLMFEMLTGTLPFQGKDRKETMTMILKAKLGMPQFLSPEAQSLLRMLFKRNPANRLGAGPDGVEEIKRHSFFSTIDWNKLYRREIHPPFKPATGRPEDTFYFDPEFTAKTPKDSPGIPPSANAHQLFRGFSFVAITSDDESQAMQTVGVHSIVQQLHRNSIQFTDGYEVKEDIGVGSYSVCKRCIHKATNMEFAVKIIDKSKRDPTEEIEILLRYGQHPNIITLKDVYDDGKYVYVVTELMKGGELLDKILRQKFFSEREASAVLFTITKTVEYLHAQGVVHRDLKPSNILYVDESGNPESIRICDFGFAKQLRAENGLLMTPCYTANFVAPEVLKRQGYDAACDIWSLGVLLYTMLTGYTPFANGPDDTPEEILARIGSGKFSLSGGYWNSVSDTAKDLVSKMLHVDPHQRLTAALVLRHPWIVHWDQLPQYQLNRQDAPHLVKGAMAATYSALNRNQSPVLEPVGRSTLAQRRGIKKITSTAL

C[C@@H]1CN(c2cc(-c3n[nH]c4ccc(OC5(C)CC5)cc34)ncn2)C[C@H](C)O1 [MLi-2]
inactive: [1] 3.91% | [2] 9.6% | [3] -2.1% | [4] 8.17% | [5] 16% | [6] 5.52% | [7] -1% | [8] 21.6% | [9] -4.02% | [10] 3.08% | [11] -0.0326% | [12] 2.08% | [13] 4.43% | [14] -0.455%
